The nature of series [1]: clinic: treatment of asthma and chronic obstructive pulmonary disease. It is filed as in vivo.
A further series can be described thus: solubility in ethanol. It is filed as physicochemical.
Series [2] can be described thus: equilibration in solvents, crystalline form. The class given is physicochemical. Particulars: 1 day at 25° C. in water, ethanol and isopropanol.
The nature of another series: hygroscopicity. It is filed as physicochemical.
A short description of a further series: stability of the salt. The class given is physicochemical. Particulars: before and after micronisation, with or without excipients, with and without moisture.

With `CCc1cc2c(cc1CC)CC(NC[C@H](O)c1ccc(O)c3[nH]c(=O)ccc13)C2.O=C(O)/C=C\C(=O)O` [(R)-5-[2-(5,6-diethyl-indan-2-ylamino)-1-hydroxyethyl]-8-hydroxy-1H-quinolin-2-one maleate], the “tested in the clinic for the treatment of asthma and chronic obstructive pulmonary disease” value in series [1] (clinic) is “tested favourably”. Further, in series [1] (particularly first administration), the “cough exhibited by certain patients on administration” value was “cough”.
For the molecule `CCc1cc2c(cc1CC)CC(NC[C@H](O)c1ccc(O)c3[nH]c(=O)ccc13)C2` [Example 12, (R)-5-[2-(5,6-diethyl-indan-2-ylamino)-1-hydroxyethyl]-8-hydroxy-1H-quinolin-2-one glycolate], in “solubility in ethanol”, the solubility in ethanol result is listed as “low”. The “change of crystalline form after equilibration” value in series [2] is recorded as “no change of crystalline form”. Also, the hygroscopicity result in “hygroscopicity” was “substantially not hydroscopic”. Also, in the series “stability of the salt”, the stability result is on record as “especially stable”.
The corresponding values for `CC(=O)O.CCc1cc2c(cc1CC)CC(NC[C@H](O)c1ccc(O)c3[nH]c(=O)ccc13)C2` [Example 15, (R)-5-[2-(5,6-diethyl-indan-2-ylamino)-1-hydroxyethyl]-8-hydroxy-1H-quinolin-2-one acetate] are “low”, “no change of crystalline form”, “substantially not hydroscopic” and “especially stable”.
The corresponding values for `CCc1cc2c(cc1CC)CC(NC[C@H](O)c1ccc(O)c3[nH]c(=O)ccc13)C2.O=C(O)CC(=O)O` [Example 21, (R)-5-[2-(5,6-diethyl-indan-2-ylamino)-1-hydroxyethyl]-8-hydroxy-1H-quinolin-2-one hydrogen malonate] are “low”, “no change of crystalline form”, “substantially not hydroscopic” and “especially stable”.

The values above are taken from patent publication US8198450B2, “Quinolinone derivatives and their pharmaceutical compositions” (Novartis AG, priority 2006, dated 2012).
